Reference: the supplement of paper PMC10307832

How the values were obtained:
Experiment in all cases: relative viability (nuclei count vs DMSO), 5 days (fraction); higher = more cells survive
Adavosertib + Trametinib = compound: C=CCn1c(=O)c2cnc(Nc3ccc(N4CCN(C)CC4)cc3)nc2n1-c1cccc(C(C)(C)O)n1 [Adavosertib] + CC(=O)Nc1cccc(-n2c(=O)n(C3CC3)c(=O)c3c(Nc4ccc(I)cc4F)n(C)c(=O)c(C)c32)c1 [Trametinib] (partner 0.02 µM)
Outline: (§1)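 Five library-drug doses in √10 steps were combined with a fixed anchor-drug dose, or a single drug was given alone, by pin tool to lung cancer cell lines in 1536-well plates the day after seeding. Nuclei were stained and counted after 5 days. Relative viability is the nuclei count in treated wells over that in vehicle wells, taken as the median of duplicate plates.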

Adavosertib + Luminespib = compound: C=CCn1c(=O)c2cnc(Nc3ccc(N4CCN(C)CC4)cc3)nc2n1-c1cccc(C(C)(C)O)n1 [Adavosertib] + CCNC(=O)c1noc(-c2cc(C(C)C)c(O)cc2O)c1-c1ccc(CN2CCOCC2)cc1 [Luminespib] (partner 0.01 µM)
Outline: as §1

Nelarabine + Pictilisib = compound: COc1nc(N)nc2c1ncn2[C@@H]1O[C@H](CO)[C@@H](O)[C@@H]1O [Nelarabine] + CS(=O)(=O)N1CCN(Cc2cc3nc(-c4cccc5[nH]ncc45)nc(N4CCOCC4)c3s2)CC1 [Pictilisib] (partner 1 µM)
Outline: as §1

Nelarabine + Olaparib = compound: COc1nc(N)nc2c1ncn2[C@@H]1O[C@H](CO)[C@@H](O)[C@@H]1O [Nelarabine] + O=C(c1cc(Cc2n[nH]c(=O)c3ccccc23)ccc1F)N1CCN(C(=O)C2CC2)CC1 [Olaparib] (partner 8 µM)
Outline: as §1

Cell Line	relative viability (Adavosertib + Trametinib; first compound 0.01 µM)	relative viability (Adavosertib + Trametinib; first compound 0.03162 µM)	relative viability (Adavosertib + Trametinib; first compound 0.1 µM)	relative viability (Adavosertib + Trametinib; first compound 0.3162 µM)	relative viability (Adavosertib + Luminespib; first compound 0.01 µM)	relative viability (Adavosertib + Luminespib; first compound 0.03162 µM)	relative viability (Adavosertib + Luminespib; first compound 0.1 µM)	relative viability (Adavosertib + Luminespib; first compound 0.3162 µM)	relative viability (Nelarabine + Pictilisib; first compound 0.01 µM)	relative viability (Nelarabine + Pictilisib; first compound 0.03162 µM)	relative viability (Nelarabine + Pictilisib; first compound 0.1 µM)	relative viability (Nelarabine + Pictilisib; first compound 0.3162 µM)	relative viability (Nelarabine + Pictilisib; first compound 1 µM)	relative viability (Nelarabine + Olaparib; first compound 0.01 µM)	relative viability (Nelarabine + Olaparib; first compound 0.03162 µM)	relative viability (Nelarabine + Olaparib; first compound 0.1 µM)	relative viability (Nelarabine + Olaparib; first compound 0.3162 µM)	relative viability (Nelarabine + Olaparib; first compound 1 µM)
NCI-H520	0.797	0.65	0.634	0.629	0.227	0.214	0.243	0.213	0.387	0.256	0.345	0.322	0.314	0.29	0.29	0.343	0.366	0.363
NCI-H23	0.363	0.395	0.339	0.226	0.217	0.252	0.233	0.21	0.494	0.499	0.528	0.459	0.51	0.32	0.235	0.294	0.33	0.335
IA-LM									0.369	0.343	0.22	0.259	0.328	0.932	0.811	0.877	0.825	0.789
A549									0.729	0.546	0.499	0.577	0.463	0.379	0.363	0.401	0.452	0.377
NCI-H1648	0.536	0.473	0.594	0.448											0.927		0.889	0.714
HCC-78	0.859	0.737	0.888	0.852					0.156	0.215		0.261	0.231	1.01	0.857		0.914	0.87
ABC-1					0.799	0.357	0.584	0.364	0.901	0.828	0.584	1.01	0.756	0.774	0.706	0.777	0.903	0.835
SW 900	0.682	0.892	0.957	0.696		0.195	0.169	0.156						0.843	0.752	0.96	0.949	0.797
NCI-H1623					0.354	0.492	0.453	0.468										
EBC-1									0.372	0.284	0.407	0.329	0.461	0.89	0.911	0.707	0.676	0.737
NCI-H2342	0.922	0.829	0.776	0.848	0.636	0.676	0.788	0.784						0.442	0.432	0.443	0.395	0.442
NCI-H1563					0.562	0.544	0.507	0.473	0.605	0.634	0.641	0.67	0.626					
HCC-366	0.387	0.353	0.352	0.344					0.165	0.122	0.152	0.196	0.132	0.33	0.327	0.434	0.385	0.389
NCI-H1299									1.06	0.899	0.857	0.861	0.757	1	0.999	0.989	1.02	1.03
